The subject of series [1] is Blumeria graminis f.sp. hordei. Description: Blumeria graminis test (barley)/protective. It is filed as in vivo. Conditions: 168 h, 1000 ppm active substance, protective, evaluation 7 days after inoculation, read-out: degree of effectiveness. As for the experimental part:
Blumeria graminis Test (Barley)/Protective
(§1) To prepare a suitable active substance composition, 1 part by weight of active substance is mixed with the given amounts of solvent and emulsifier and the concentrate is diluted to the desired concentration using water.
For the testing of protective effectiveness, young plants are sprayed with the active substance composition in the application rate given.
After the spray coating has been dried on, the plants are dusted with spores of Blumeria graminis f.sp. hordei.
The plants are placed in a greenhouse at a temperature of approximately 20° C. and a relative humidity of approximately 80%, in order to encourage the development of mildew pustules.
Evaluation is carried out 7 days after the inoculation. In this connection, 0% means a degree of effectiveness corresponding to that of the control, while a degree of effectiveness of 100% means that no infestation is observed.

Series [2] deals with Puccinia recondita var. tritici. The experiment in a line: Puccinia test (wheat)/protective. It is filed as in vivo. Conditions: 240 h, 1000 ppm active substance, protective, evaluation 10 days after inoculation, read-out: degree of effectiveness. As for the experimental part: Puccinia Test (Wheat)/Protective
as §1
For the testing of protective effectiveness, young plants are sprayed with the active substance composition in the application rate given. After the spray coating has been dried on, the plants are sprayed with a suspension of the conidia of Puccinia recondita var. tritici. The plants remain in an incubation chamber at 20° C. and 100% relative humidity for 48 hours.
The plants are then placed in a greenhouse at a temperature of approximately 20° C. and a relative humidity of 80%, in order to encourage the development of rust pustules.
Evaluation is carried out 10 days after the inoculation. In this connection, 0% means a degree of effectiveness corresponding to that of the control, while a degree of effectiveness of 100% means that no infestation is observed.

The subject of the next series is Phakopsora pachyrhizi. The experiment in a line: Phakopsora test (soya)/protective. It is filed as in vivo. Conditions: 264 h, 100 ppm active substance, protective, evaluation 11 days after inoculation, read-out: degree of effectiveness. As for the experimental part:
Phakopsora Test (Soya)/Protective
as §1
For the testing of protective effectiveness, young plants are sprayed with the active substance composition in the application rate given. After the spray coating has been dried on, the plants are inoculated with an aqueous suspension of the spores of Phakopsora pachyrhizi and then remain in an incubation chamber at approximately 20° C. and 80% relative humidity for 1 day.
Evaluation is carried out 11 days after the inoculation. In this connection, 0% means a degree of effectiveness corresponding to that of the control, while a degree of effectiveness of 100% means that no infestation is observed.

In another series the test system is Alternaria solani. Description: Alternaria test (tomato)/protective. The series is classed as in vivo. Conditions: 168 h, 500 ppm active substance, protective, evaluation 7 days after inoculation, read-out: degree of effectiveness. As for the experimental part:
Alternaria Test (Tomato)/Protective [table] To prepare a suitable active substance composition, 1 part by weight of active substance is mixed with the given amounts of solvent and emulsifier and the concentrate is diluted to the desired concentration using water. For the testing of protective effectiveness, young tomato plants are sprayed with the active substance composition in the application rate given. 1 day after the treatment, the plants are inoculated with a suspension of the spores of Alternaria solani and then stand at 100% relative humidity and 20° C. for 24 h. Subsequently, the plants stand at 96% relative humidity and a temperature of 20° C. Evaluation is carried out 7 days after the inoculation. In this connection, 0% means a degree of effectiveness corresponding to that of the control, while a degree of effectiveness of 100% means that no infestation is observed.

In another series the test system is Sphaerotheca fuliginea. The experiment in a line: Sphaerotheca test (cucumber)/protective. It is filed as in vivo. Conditions: Podosphaera fuliginea, 168 h, 100 ppm active substance, protective, evaluation 7 days after inoculation, read-out: degree of effectiveness. As for the experimental part: Sphaerotheca Test (Cucumber)/Protective [table] To prepare a suitable active substance composition, 1 part by weight of active substance is mixed with the given amounts of solvents and emulsifier and the concentrate is diluted to the desired concentration using water. For the testing of protective effectiveness, young plants are sprayed with the active substance composition in the application rate given. After the spray coating has been dried on, the plants are inoculated with an aqueous suspension of spores of Sphaerotheca fuliginea. The plants are then placed in a greenhouse at approximately 23° C. and a relative humidity of approximately 70%. Evaluation is carried out 7 days after the inoculation. In this connection, 0% means a degree of effectiveness corresponding to that of the control, while a degree of effectiveness of 100% means that no infestation is observed.

For a further series, the system named is Uromyces appendiculatus. Description: Uromyces test (beans)/protective. The series is classed as in vivo. Conditions: 240 h, 100 ppm active substance, protective, evaluation 10 days after inoculation, read-out: degree of effectiveness. As for the experimental part:
Uromyces Test (Beans)/Protective [table] To prepare a suitable active substance composition, 1 part by weight of active substance is mixed with the given amounts of solvents and emulsifier and the concentrate is diluted to the desired concentration using water. For the testing of protective effectiveness, young plants are sprayed with the active substance composition in the application rate given. After the spray coating has been dried on, the plants are inoculated with an aqueous suspension of the spores of the bean rust pathogen Uromyces appendiculatus and then remain in an incubation chamber at approximately 20° C. and 100% relative humidity for 1 day. The plants are then placed in a greenhouse at approximately 21° C. and a relative humidity of approximately 90%. Evaluation is carried out 10 days after the inoculation. In this connection, 0% means a degree of effectiveness corresponding to that of the control, while a degree of effectiveness of 100% means that no infestation is observed.

The next series deals with Pyrenophora teres. Description: Pyrenophora teres test (barley)/protective. The series is classed as in vivo. Conditions: 500 ppm active substance, protective, evaluation 7-9 days after inoculation, read-out: degree of effectiveness. As for the experimental part:
Pyrenophora teres Test (Barley)/Protective
as §1
For the testing of protective effectiveness, young barley plants are sprayed with the active substance composition in the application rate given. 1 day after the treatment, the plants are inoculated with an aqueous suspension of the spores of Pyrenophora teres and then remain at 100% relative humidity and 20° C. for 48 h. Subsequently, the plants are placed in a greenhouse at 80% relative humidity and a temperature of 20° C.
Evaluation is carried out 7-9 days after the inoculation. In this connection, 0% means a degree of effectiveness corresponding to that of the control, while a degree of effectiveness of 100% means that no infestation is observed.

Like-named read-outs stand apart in the source and are kept apart here.

The term logP denotes the decadic logarithm of the partition coefficient of the neutral form, usually between octanol and water. With `CCN(C)C=Nc1cc(C)c(Oc2nc(C3(Cl)CC3)c(Cl)s2)cc1C` [Compound 7, N′-(4-{[5-Chloro-4-(1-chlorocyclopropyl)-1,3-thiazol-2-yl]oxy}-2,5-dimethylphenyl)-N-ethyl-N-methylimidoformamide], the pest or weed control at 1000 ppm in series [1] and in series [2] was at least 70% throughout. In the series “physchem” (pH 2.3), this compound came in with a logP of 1.82. Also, the pest or weed control at 100 ppm with Phakopsora pachyrhizi was at least 80%; in the series with Sphaerotheca fuliginea, at least 70%; with Uromyces appendiculatus, at least 70%. The pest or weed control at 500 ppm with Alternaria solani and with Pyrenophora teres was at least 70% each time.
Turning to `Cc1cc(Oc2nc(C3(Cl)CC3)c(Cl)s2)c(C)cc1/N=C/N1CCCCC1` [Compound 8, 4-{[5-Chloro-4-(1-chlorocyclopropyl)-1,3-thiazol-2-yl]oxy}-2,5-dimethyl-N-[(1E)-piperidin-1-ylmethylidene]aniline], the pest or weed control at 1000 ppm in series [1] and in series [2] was at least 70% in each case. For the same compound, the figures for the logP in “physchem” and in “physchem” (pH 2.3) were 6.02 and 2.47, respectively. In addition, the figures for the pest or weed control at 100 ppm in the series with Phakopsora pachyrhizi, in the series with Sphaerotheca fuliginea and with Uromyces appendiculatus were at least 80%, at least 70% and at least 70%, respectively. The pest or weed control at 500 ppm in the series with Alternaria solani and in the series with Pyrenophora teres was at least 70% in each case.
Take `CCN(C)C=Nc1cc(C)c(Oc2nc(C3(C)CC3)ns2)cc1C` [Compound 9, N′-(2,5-Dimethyl-4-{[3-(1-methylcyclopropyl)-1,2,4-thiadiazol-5-yl]oxy}phenyl)-N-ethyl-N-methylimidoformamide]: the pest or weed control at 1000 ppm in series [1] and in series [2] was at least 70% throughout. In the series “physchem” (pH 2.3), this compound yielded a logP of 1.94. In addition, the results for the pest or weed control at 100 ppm in the series with Phakopsora pachyrhizi, in the series on Sphaerotheca fuliginea and in the series with Uromyces appendiculatus were at least 80%, at least 70% and at least 70%, respectively. Also, the pest or weed control at 500 ppm in the series with Alternaria solani and with Pyrenophora teres was at least 70% throughout.
Turning to `CCN(C)C=Nc1cc(C)c(Oc2nc(C3CC3C)ns2)cc1C` (centres unmarked) [Compound 14, N′-(2,5-Dimethyl-4-{[3-(2-methylcyclopropyl)-1,2,4-thiadiazol-5-yl]oxy}phenyl)-N-ethyl-N-methylimidoformamide], the pest or weed control at 1000 ppm in series [1] and in series [2] was at least 70% in each case. Further, the logP in “physchem” (pH 2.3) was determined as 1.96. In addition, the pest or weed control at 100 ppm in the series with Phakopsora pachyrhizi was at least 80%; in the series with Sphaerotheca fuliginea, at least 70%; in the series on Uromyces appendiculatus it was at least 70%. The pest or weed control at 500 ppm in the series with Alternaria solani and with Pyrenophora teres was at least 70% in each case.
Regarding `Cc1cc(Oc2nc(C3CC3C)ns2)c(C)cc1N=CN(C)C(C)C` (centres unmarked) [Compound 15, N′-(2,5-Dimethyl-4-{[3-(2-methylcyclopropyl)-1,2,4-thiadiazol-5-yl]oxy}phenyl)-N-methyl-N-(1-methylethyl)imidoformamide], the pest or weed control at 1000 ppm in series [1] and in series [2] was at least 70% in each case. Further, the logP in the series “physchem” (pH 2.3) was found to be 1.74. Also, the pest or weed control at 100 ppm in the series with Phakopsora pachyrhizi is at least 80%; in the series on Sphaerotheca fuliginea, at least 70%; in the series on Uromyces appendiculatus, at least 70%. The pest or weed control at 500 ppm in the series with Alternaria solani and in the series on Pyrenophora teres was at least 70% each time.
For the compound `CCN(C)C=Nc1cc(C)c(Oc2nc(C3(C)CC3)c(Cl)s2)cc1C` [Compound 21, N′-(4-{[5-Chloro-4-(1-methylcyclopropyl)-1,3-thiazol-2-yl]oxy}-2,5-dimethylphenyl)-N-ethyl-N-methylimidoformamide], the pest or weed control at 1000 ppm in series [1] and in series [2] was at least 70% throughout. The logP in “physchem” is 6; in the series “physchem” (pH 2.3) it was 1.97. The figures for the pest or weed control at 100 ppm in the series with Phakopsora pachyrhizi, in the series on Sphaerotheca fuliginea and in the series on Uromyces appendiculatus were at least 80%, at least 70% and at least 70%, respectively. Moreover, the pest or weed control at 500 ppm in the series on Alternaria solani and with Pyrenophora teres was at least 70% throughout.

Values taken from patent US20100285957A1, “THIAZOLYLOXYPHENYLAMIDINES OR THIADIAZOLYLOXYPHENYLAMIDINES AND THEIR USE AS FUNGICIDES” (Bayer CropScience AG, priority 2007, published 2010).
